Data taken from patent US12043600B2, “Microbiocidal compounds” (SYNGENTA CROP PROTECTION AG, priority 2018, dated 2024).
Like-named read-outs stand apart in the source and are kept apart here.

Legend:
[1] = test system: Mycosphaerella arachidis (Cercospora arachidicola); test: Mycosphaerella arachidis (Cercospora arachidicola)/Liquid Culture (Early Leaf Spot); format: cell-based; conditions: liquid culture, compared to untreated control
Procedure, shortened: (§1)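 Test compound dissolved in DMSO is dispensed first; nutrient broth (potato dextrose) carrying conidia thawed from cryogenic storage follows.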

Phytophthora infestans = test: whole plant or invertebrate; format: in vivo; conditions: in Solanum lycopersicum, foliar, read-out: control of Phytophthora infestans
[2] = test system: Magnaporthe grisea (Pyricularia oryzae); test: whole plant or invertebrate; format: in vivo; conditions: foliar, read-out: control of Magnaporthe grisea
[3] = test system: Mycosphaerella graminicola (Septoria tritici); test: Mycosphaerella graminicola (Septoria tritici)/Liquid Culture (Septoria Blotch); format: cell-based; conditions: Zymoseptoria tritici; for inhibition of growth at 20 ppm: liquid culture, compared to untreated control; for inhibition of growth at 6 ppm: M. graminicola (B19), read-out: Disease control (%)
Procedure, shortened: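 Conidia from cryogenic storage mixed into potato dextrose broth and added to microtiter wells already holding DMSO solutions of test compound. Activity expressed as percentage disease control.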

[4] = test system: Monographella nivalis (Microdochium nivale); test: Monographella nivalis (Microdochium nivale)/Liquid Culture (Foot Rot Cereals); format: cell-based; conditions: liquid culture, compared to untreated control
Procedure, shortened: as §1

[5] = test system: Botryotinia fuckeliana (Botrytis cinerea); test: Botryotinia fuckeliana (Botrytis cinerea)/Liquid Culture (Gray Mould); format: cell-based; conditions: liquid culture, compared to untreated control
Procedure: Conidia of the fungus from cryogenic storage are directly mixed into nutrient broth (Vogels broth). After placing a (DMSO) solution of test compound into a microtiter plate (96-well format), the nutrient broth containing the fungal spores is added.

[6] = test system: Puccinia recondita f. sp. tritici; test: Puccinia recondita f. sp. tritici/Wheat/Leaf Disc Curative (Brown Rust); format: in vivo; conditions: foliar, wheat leaf disc curative, compared to untreated control
Procedure: Wheat leaf segments cv. Kanzler are placed on agar in multiwell plates (24-well format). The leaf segments are inoculated with a spore suspension of the fungus. Plates are stored in darkness at 19° C. and 75% rh. The formulated test compound diluted in water is applied 1 day after inoculation. The leaf segments are incubated at 19° C. and 75% rh under a light regime of 12 h light/12 h darkness in a climate cabinet and the activity of a compound is assessed as percent disease control compared to untreated when an appropriate level of disease damage appears in untreated check leaf segments (6-8 days after application).

[7] = test system: Puccinia recondita f. sp. tritici; test: Puccinia recondita f. sp. tritici/Wheat/Leaf Disc Preventative (Brown Rust); format: in vivo; conditions: foliar
Plasmopara viticola = test: whole plant or invertebrate; format: in vivo; conditions: foliar, read-out: control of Plasmopara viticola
[8] = test system: Glomerella lagenarium (Colletotrichum lagenarium); test: Glomerella lagenarium (Colletotrichum lagenarium)/Liquid Culture (Anthracnose); format: cell-based; conditions: Colletotrichum orbiculare, liquid culture, compared to untreated control
[9] = test system: Blumeria graminis f. sp. tritici (Erysiphe graminis f. sp. tritici); test: Blumeria graminis f. sp. tritici/Wheat/Leaf Disc Preventative (Powdery Mildew on Wheat); format: in vivo; conditions: foliar, wheat leaf disc preventative, compared to untreated control
Procedure, shortened: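 Wheat cv. Kanzler leaf segments on agar sprayed with formulated compound, inoculated with powdery mildew 1 day later and held at 20° C, 60% rh (24 h dark, then 12 h light/12 h dark). Percent disease control versus untreated scored 6-8 days after application.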

[10] = test system: Phaeosphaeria nodorum (Septoria nodorum); test: Phaeosphaeria nodorum (Septoria nodorum)/Wheat/Leaf Disc Preventative (Glume Blotch); format: in vivo; conditions: Parastagonospora nodorum, foliar, wheat leaf disc preventative, compared to untreated control
Procedure, shortened: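 Wheat cv. Kanzler leaf discs on agar were sprayed with formulated compound diluted in water and inoculated with P. nodorum spores 2 days later. Discs kept at 20 °C, 75% rh, 12 h light/dark; percent disease control versus untreated scored 5–7 days after application.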

Pyrenophora teres = test: Pyrenophora teres/Barley/Leaf Disc Preventative (Net Blotch); format: in vivo; conditions: foliar
Description: Barley leaf segments cv. Hasso are placed on agar in a multiwell plate (24-well format) and sprayed with the formulated test compound diluted in water. The leaf segments are inoculated with a spore suspension of the fungus 2 days after application. […] The data are presented as the percentage of disease control of each compound for the biological tests against G. lagenarium (Example B3), P. recondita preventative (Example B13), P. teres (Example B15) and M. graminicola (Example B19) as described above. The testing rates of each biological test is specifically described in table C1 below.

Phakopsora pachyrhizi = test: Phakopsora pachyrhizi/Soybean/Preventative (Soybean Rust); format: in vivo; conditions: foliar, 288 h, 200 ppm, soybean leaf disc preventative, compared to untreated control, read-out: control of Phakopsora pachyrhizi
[11] = wheat leaf disc preventative, compared to untreated control, read-out: control of Puccinia recondita f. sp. tritici
[12] = P. teres (B15), read-out: Disease control (%)
[13] = P. recondita prev (B13), read-out: Disease control (%)

Row | Compound | inhibition of growth at 20 ppm [3] | inhibition of growth at 20 ppm [4] | pest or weed control at 200 ppm [7, 11] | pest or weed control at 200 ppm (Plasmopara viticola) | pest or weed control at 200 ppm (Pyrenophora teres; [12]) | inhibition of growth at 6 ppm [3] | pest or weed control at 60 ppm [7, 13] | further results
1 | CO/C=C(\Oc1cc(-n2ccc(C(C)C)n2)c(C)cc1C)C(=O)OC [Compound E-25, methyl (Z)-2-[5-(3-isopropylpyrazol-1-yl)-2,4-dimethyl-phenoxy]-3-methoxy-prop-2-enoate] | ≥ 80% | ≥ 80% | ≥ 80% | ≥ 80% |  |  |  | inhibition of growth at 20 ppm [1]: ≥ 80%; pest or weed control at 200 ppm (Phytophthora infestans): ≥ 80%; pest or weed control at 200 ppm [2]: ≥ 80%; inhibition of growth at 20 ppm [5]: ≥ 80%; pest or weed control at 200 ppm [6]: ≥ 80%; inhibition of growth at 20 ppm [8]: ≥ 80%; melting point: 96 to 98 °C; pest or weed control at 200 ppm [9]: ≥ 80%
2 | CO/C=C(\Oc1cc(-n2ccc(OC(F)F)n2)ccc1C)C(=O)OC [Compound E-66, methyl (Z)-2-[5-[3-(difluoromethoxy)pyrazol-1-yl]-2-methyl-phenoxy]-3-methoxy-prop-2-enoate] | ≥ 80% | ≥ 80% | ≥ 80% | ≥ 80% |  |  |  | inhibition of growth at 20 ppm [1]: ≥ 80%; pest or weed control at 200 ppm [10]: ≥ 80%; inhibition of growth at 20 ppm [5]: ≥ 80%; pest or weed control at 200 ppm [6]: ≥ 80%; inhibition of growth at 20 ppm [8]: ≥ 80%; melting point: 123 to 126 °C; pest or weed control at 200 ppm [9]: ≥ 80%
3 | CO/C=C(\Oc1cc(-n2ccc(C#N)n2)ccc1C)C(=O)OC [Compound E-89, methyl (Z)-2-[5-(3-cyanopyrazol-1-yl)-2-methyl-phenoxy]-3-methoxy-prop-2-enoate] | ≥ 80% | ≥ 80% | ≥ 80% | ≥ 80% |  |  |  | pest or weed control at 200 ppm (Pyrenophora teres; barley leaf disc preventative, compared to untreated control, read-out: control of Pyrenophora teres): ≥ 80%; pest or weed control at 200 ppm (Phakopsora pachyrhizi): ≥ 50%
4 | CCOc1ccn(-c2ccc(C)c(O/C(=C\OC)C(=O)OC)c2)n1 [Compound E-94, methyl (Z)-2-[5-(3-ethoxypyrazol-1-yl)-2-methyl-phenoxy]-3-methoxy-prop-2-enoate] | ≥ 80% | ≥ 80% | ≥ 80% | ≥ 80% |  |  |  | inhibition of growth at 20 ppm [1]: ≥ 80%; pest or weed control at 200 ppm (Phytophthora infestans): ≥ 80%; pest or weed control at 200 ppm [10]: ≥ 80%; inhibition of growth at 20 ppm [5]: ≥ 80%; pest or weed control at 200 ppm [6]: ≥ 80%; inhibition of growth at 20 ppm [8]: ≥ 80%; melting point: 94 to 96 °C; pest or weed control at 200 ppm [9]: ≥ 80%
5 | CO/C=C(\Oc1cccc(-n2ncc(C3CC3)n2)c1)C(=O)OC [drawing 146] |  |  |  |  | 0% | 90% | 100% | 
6 | CO/C=C(\Oc1cc(-n2ncc(C3CC3)n2)ccc1C)C(=O)OC [drawing 147] |  |  |  |  |  | 100% | 100% | pest or weed control at 20 ppm (Pyrenophora teres; P. teres (B15), 20 ppm, read-out: Disease control (%)): 50%
7 | CO/C=C(\Oc1cc(-n2ccc(C(F)(F)F)n2)c(F)cc1C)C(=O)OC [drawing 148] |  |  |  |  | 90% | 100% | 100% | 
8 | CO/C=C(\Oc1cc(-n2ccc(C(C)C)n2)ccc1C)C(=O)OC [drawing 149] |  |  |  |  | 0% | 100% | 100% | 
9 | CO/C=C(\Oc1cc(-n2ccc(OC(C)C)n2)ccc1C)C(=O)OC [drawing 150] |  |  |  |  | 90% | 100% | 100% | 
10 | CO/C=C(\Oc1cc(-n2ccc(C(F)(F)F)n2)ccc1C)C(=O)OC [drawing 152] |  |  |  |  | 90% | 100% | 100% | 
11 | CO/C=C(\Oc1cccc(-n2ccc(C(F)(F)F)n2)c1)C(=O)OC [drawing 153] |  |  |  |  | 50% | 70% |  | pest or weed control at 200 ppm [7, 13]: 90%
12 | CO/C=C(\Oc1cccc(-n2cccc2)c1)C(=O)OC [drawing 154, reference compound] |  |  |  |  | 0% | 20% |  | pest or weed control at 200 ppm [7, 13]: 0%
